Test results from patent publication US20070287699A1, “ANTIVIRAL AGENTS” (ViroBay, Inc., priority 2006, published 2007).

Tested on: HCV replicon RNA replication in human Huh7 hepatoma cells
Experiment: HCV replicon assay (activity levels from either or both of HCV replicon assay 1, Huh7/Clone A RT-qPCR, and assay 2, Huh7 ET luc-ubi-neo/ET)
Format: cell-based, Hepatitis C virus (HCV)
Details: Hepatitis C virus, Huh-7, either or both HCV replicon assays: Huh7/Clone A, 48 hours, 72 hours, Luc activity or RT-PCR, read-out: inhibit HCV replication at IC50 levels or estimated IC50 levels
Source text: The HCV replicon assay is a cell-culture system that mimics in vivo HCV replication and provides a system to study HCV replication in vitro. It was created by transfecting cloned viral RNA derived from a consensus HCV genomic sequence into human Huh7 hepatoma cells that are semi-permissive for viral RNA production (Lohmann V., Korner F., Koch J.-O., Herian U., Theilmann L. and Bartenschlager R. (1999). Replication of subgenomic Hepatitis C virus RNAs in a hepatoma cell line. Science 285, 110-113 and Blight K. J., Kolykhalov A. A. and Rice C. M. (2000). Efficient initiation of HCV RNA Replication in cell culture. Science 290, […]). These transfected cell lines contain a subgenomic HCV RNA genome that includes (1) the HCV 5′NTR fused to 12 amino acids of the capsid coding region, (2) the neomycin phosphotransferase gene (Neo) as a selectable marker, (3) the internal ribosome entry site (IRES) from encephalomyocarditis virus (EMCV) that directs translation of HCV non-structural proteins (variously NS2 or NS3 to NS5B), and (4) the 3′ NTR. Replicon-containing cells autonomously and persistently replicate HCV RNA that can be measured quantitatively by real-time qPCR. Therefore, the replicon system facilitates quantitative assessment of anti-viral activity by monitoring changes in HCV RNA replication in a cell-based assay.
HCV replicon-containing cells (Huh7/Clone A) were routinely maintained in Clone A growth medium (DMEM medium [Invitrogen], supplemented with 10% Fetal Bovine Serum, 1% Non Essential Amino Acids and 1 g/L G418). Test compounds were dissolved in dimethyl sulfoxide (DMSO) to make 200× stock solutions for all doses prior to treatment.
For the HCV replicon assay, Huh7/Clone A cells were trypsinized from culture flasks, seeded in 1 ml of Clone A growth medium without G418 at 4×10^4 cells per well in 24-well plates and incubated at 37° C. in a humidified CO2 (5%) incubator overnight. Following overnight incubation, compound solutions were added into wells in the same volume (5 μl of 200× compound stock per well) to give a final DMSO concentration of 0.5%. Three wells on each plate supplemented with 5 μl of DMSO served as untreated controls. For IC50 determinations, compounds were tested at 7 serial dilutions in triplicates from the starting stock solutions. The plates were incubated at 37° C. for 48 hours. After incubation, cells were harvested, transferred to 96-well plates, and subjected to total RNA extraction using the RNA Isolation Kit (RNeasy 96, Qiagen) according to the protocol described by the manufacture's RNeasy 96 Handbook (Qiagen).
Total RNA eluted in 130 μl of RNase-free dH2O was quantitated by the RiboGreen Assay according to the supplier's protocol (Molecular Probe). Briefly, 5 μl of RNA samples were aliquoted in duplicate to a 96-well black microplate and a 96-well TaqMan Optical plate. RNA samples in the black microplate were mixed with 95 μl of diluted RiboGreen:reagent (1:250 dilution in TE buffer) and sample fluorescence was measured using a fluorescence microplate reader at standard fluorescein wavelengths (excitation ˜480 nm, emission ˜520 nm). Ribosomal RNA (Molecular Probe) was used as standard.
TaqMan quantitative PCR (RT-qPCR) was used to quantitate the amount of HCV replicon RNA in each sample. The RT-qPCR reactions were performed in 25 μl on an ABI PRISM 7900 HT Sequence Detection System (Applied Biosystems). The reaction mixture contained 5 μl of total RNA (10-100 ng), 1× TaqMan Buffer A (Applied Biosystems), 5.5 mM MgCl2, 1.2 mM dNTP mix, 0.625 U of AmpliTaq Gold (Applied Biosystems), 5 U of MMLV reverse transcriptase (Promega), 5 U of rRNasin (Promega), 300 nM each of the forward and reverse primers, and 100 nM TaqMan MGB probe. Primers and probe were designed to hybridize to a portion of the neomycin resistance gene (neo) in the replicon and the sequences are as follows: forward primer 5′-GGCTACCTGCCCATTCGA-3′; reverse primer 5′-CCGGCTTCCATCCGAGTAC-3′; MGB probe 5′-CCACCAAGCGAAACA-3′. […]

| Structure (SMILES) | IC50 [µM] |
| --- | --- |
| CN1CCN(c2cc3c(cc2F)c(=O)c(-c2noc(Cc4ccc(F)cc4)n2)cn3Cc2cccc(C(F)(F)F)c2)CC1 [Compound 91, 6-fluoro-3-[5-(4-fluoro-benzyl)-[1,2,4]oxadiazol-3-yl]-7-(4-methyl-piperazin-1-yl)-1-(3-trifluoromethyl-benzyl)-1H-quinolin-4-one] | < 2 |
| O=c1c(-c2noc(Cc3ccccc3)n2)cn(Cc2ccc(C(F)(F)F)cc2)c2cc(N3CCNCC3)c(F)cc12 [Compound 70, 3-(5-benzyl-[1,2,4]oxadiazol-3-yl)-6-fluoro-7-piperazin-1-yl-1-(4-trifluoromethyl-benzyl)-1H-quinolin-4-one] | < 0.5 |
| COc1cc2c(=O)c(-c3noc(Cc4ccc(C)cc4)n3)cn(Cc3ccc(Cl)cc3)c2cc1OC [Compound 4, 1-(4-chloro-benzyl)-6,7-dimethoxy-3-[5-(4-methyl-benzyl)-[1,2,4]oxadiazol-3-yl]-1H-quinolin-4-one] | > 10 |
| CN1CCN(c2cc3c(cc2F)c(=O)c(-c2noc(Cc4ccccc4)n2)cn3Cc2c(F)cccc2Cl)CC1 [Compound 41, 3-(5-benzyl-[1,2,4]oxadiazol-3-yl)-1-(2-chloro-6-fluoro-benzyl)-6-fluoro-7-(4-methyl-piperazin-1-yl)-1H-quinolin-4-one] | > 10 |
| C[C@@H]1CN(c2cc3c(cc2F)c(=O)c(-c2noc(C(C)(C)c4ccccc4)n2)cn3Cc2ccc(C(F)(F)F)cc2)C[C@H](C)N1 [Compound 131, 7-((3S,5R)-3,5-dimethylpiperazin-1-yl)-6-fluoro-3-(5-(2-phenylpropan-2-yl)-1,2,4-oxadiazol-3-yl)-1-(4-(trifluoromethyl)benzyl)quinolin-4(1H)-one] | < 0.5 |
| CN(C)c1cc2c(cc1F)c(=O)c(-c1noc(Cc3ccccc3)n1)cn2Cc1ccc(C(F)(F)F)cc1 [Compound 74, 3-(5-benzyl-[1,2,4]oxadiazol-3-yl)-7-dimethylamino-6-fluoro-1-(4-trifluoromethyl-benzyl)-1H-quinolin-4-one] | < 2 |
| CN(C)c1cc2c(cc1F)c(=O)c(-c1noc(C(C)(C)c3ccc(F)cc3)n1)cn2Cc1ccc(C(F)(F)F)cc1 [Compound 153, 7-(dimethylamino)-6-fluoro-3-(5-(2-(4-fluorophenyl)propan-2-yl)-1,2,4-oxadiazol-3-yl)-1-(4-(trifluoromethyl)benzyl)quinolin-4(1H)-one] | < 2 |
| C[C@@H]1CN(c2cc3c(cc2F)c(=O)c(-c2noc(C(C)(C)c4ccc(F)cc4)n2)cn3Cc2ccc(C(F)(F)F)cc2)C[C@H](C)N1 [Compound 133, 7-((3S,5R)-3,5-dimethylpiperazin-1-yl)-6-fluoro-3-(5-(2-(4-fluorophenyl)propan-2-yl)-1,2,4-oxadiazol-3-yl)-1-(4-(trifluoromethyl)benzyl)quinolin-4(1H)-one] | < 0.5 |
| CN1CCN(c2cc3c(cc2F)c(=O)c(-c2noc(CN4CCCCC4)n2)cn3Cc2ccc(Cl)cc2)CC1 [Compound 52, 1-(4-chloro-benzyl)-6-fluoro-7-(4-methyl-piperazin-1-yl)-3-(5-piperidin-1-ylmethyl-[1,2,4]oxadiazol-3-yl)-1H-quinolin-4-one] | > 10 |
| CN1CCN(c2cc3c(cc2F)c(=O)c(-c2noc(C(C)(C)c4ccccc4)n2)cn3Cc2ccc(C(F)(F)F)cc2F)CC1 [Compound 77, 6-fluoro-1-(2-fluoro-4-trifluoromethyl-benzyl)-3-[5-(1-methyl-1-phenyl-ethyl)-[1,2,4]oxadiazol-3-yl]-7-(4-methyl-piperazin-1-yl)-1H-quinolin-4-one] | < 0.5 |
| COc1cc2c(=O)c(-c3noc(Cc4ccsc4)n3)cn(Cc3ccc(Cl)cc3)c2cc1OC [Compound 6, 1-(4-chloro-benzyl)-6,7-dimethoxy-3-(5-thiophen-3-ylmethyl-[1,2,4]oxadiazol-3-yl)-1H-quinolin-4-one] | < 10 |
| CN(CC(N)=O)c1cc2c(cc1F)c(=O)c(-c1noc(Cc3ccccc3)n1)cn2Cc1ccc(C(F)(F)F)cc1 [Compound 97, 2-{[3-(5-benzyl-[1,2,4]oxadiazol-3-yl)-6-fluoro-4-oxo-1-(4-trifluoromethyl-benzyl)-1,4-dihydro-quinolin-7-yl]-methyl-amino}-acetamide] | > 10 |
| CC(C)(c1ccccc1)c1noc(-c2cn(Cc3ccc(C(F)(F)F)cc3)c3cc(N4CCOCC4)c(F)cc3c2=O)n1 [Compound 171, 6-fluoro-7-morpholino-3-(3-(2-phenylpropan-2-yl)-1,2,4-oxadiazol-5-yl)-1-(4-(trifluoromethyl)benzyl)quinolin-4(1H)-one] | > 10 |
| COc1cc2c(=O)c(-c3nnc(Cc4ccc(Cl)cc4)o3)cn(Cc3ccc(Cl)cc3)c2cc1OC [Compound 162, 1-(4-chloro-benzyl)-3-[5-(4-chloro-benzyl)-[1,3,4]oxadiazol-2-yl]-6,7-dimethoxy-1H-quinolin-4-one] | > 10 |
| NC(=O)Cc1ccc2c(c1)c(=O)c(-c1noc(Cc3ccccc3)n1)cn2Cc1ccc(C(F)(F)F)cc1F [Compound 105, 2-(3-(5-benzyl-1,2,4-oxadiazol-3-yl)-1-(2-fluoro-4-(trifluoromethyl)benzyl)-4-oxo-1,4-dihydroquinolin-6-yl)acetamide] | > 10 |
| CN(C)c1cc2c(cc1F)c(=O)c(-c1noc(C(C)(C)c3ccccc3)n1)cn2Cc1ccc(C(F)(F)F)cc1 [Compound 152, 7-(dimethylamino)-6-fluoro-3-(5-(2-phenylpropan-2-yl)-1,2,4-oxadiazol-3-yl)-1-(4-(trifluoromethyl)benzyl)quinolin-4(1H)-one] | < 0.5 |
| CCCCCc1nc(-c2cn(Cc3ccc(C(F)(F)F)cc3F)c3cc(N4CCN(C)CC4)c(F)cc3c2=O)no1 [Compound 40, 6-fluoro-1-(2-fluoro-4-trifluoromethyl-benzyl)-7-(4-methyl-piperazin-1-yl)-3-(5-pentyl-[1,2,4]oxadiazol-3-yl)-1H-quinolin-4-one] | < 2 |
| CN(C)c1cc2c(cc1F)c(=O)c(-c1noc(Cc3ccccc3)n1)cn2Cc1ccc(C(F)(F)F)cc1F [Compound 51, 3-(5-benzyl-[1,2,4]oxadiazol-3-yl)-7-dimethylamino-6-fluoro-1-(2-fluoro-4-trifluoromethyl-benzyl)-1H-quinolin-4-one] | > 10 |
| CC(C)(c1ccc(F)cc1)c1nc(-c2cn(Cc3ccc(F)cc3)c3cc(N4CCS(=O)(=O)CC4)c(F)cc3c2=O)no1 [Compound 151, 7-(1,1-dioxo-thiomorpholine)-6-fluoro-3-(5-(2-(4-fluorophenyl)propan-2-yl)-1,2,4-oxadiazol-3-yl)-1-(4-(fluoro)benzyl)quinolin-4(1H)-one] | < 10 |
| CN1CCN(c2cc3c(cc2F)c(=O)c(-c2noc(Cc4ccccn4)n2)cn3Cc2ccc(Cl)cc2)CC1 [Compound 61, 1-(4-chloro-benzyl)-6-fluoro-7-(4-methyl-piperazin-1-yl)-3-(5-pyridin-2-ylmethyl-[1,2,4]oxadiazol-3-yl)-1H-quinolin-4-one] | > 10 |
| O=c1c(-c2noc(Cc3ccccc3)n2)cn(Cc2ccc(C(F)(F)F)cc2)c2cc(-n3ccnc3)c(F)cc12 [Compound 84, 3-(5-benzyl-[1,2,4]oxadiazol-3-yl)-6-fluoro-7-imidazol-1-yl-1-(4-trifluoromethyl-benzyl)-1H-quinolin-4-one] | < 2 |
